# How the values were obtained:
# [1] = biological target: T1, FGFR1 (Homo sapiens, UniProt P11362); assay: Kinase binding assay (kinase-tagged T7 phage, affinity beads, qPCR readout), FGFR1; conditions: FGFR binding data
# T1 construct: made in house; host or cells: E. coli derived from BL21, infected with T7 phage
# How it was run: (§1)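 Competition binding: kinases displaced from biotinylated-ligand streptavidin beads by test compound in binding buffer (20% SeaBlock, 0.17×PBS, 0.05% Tween 20, 6 mM DTT), 1 hour at room temperature, 0.9% DMSO. Bead-bound kinase eluted with 0.5 μM free ligand, quantified by qPCR. Kd from 11-point 3-fold dilutions, Hill slope fixed at −1.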
# [2] = biological target: T2, FGFR2 (Homo sapiens, UniProt P21802); assay: Kinase binding assay (kinase-tagged T7 phage, affinity beads, qPCR readout), FGFR2; conditions: FGFR binding data
# T2 construct: made in house; host or cells: E. coli derived from BL21, infected with T7 phage
# How it was run: as §1
# [3] = biological target: T3, FGFR3 (Homo sapiens, UniProt P22607); assay: Kinase binding assay (kinase-tagged T7 phage, affinity beads, qPCR readout), FGFR3; conditions: FGFR binding data
# T3 construct: made in house; host or cells: E. coli derived from BL21, infected with T7 phage
# How it was run: as §1
# [4] = biological target: T4, FGFR3 (V555M) (Homo sapiens, UniProt P22607, V555M); assay: Kinase binding assay (kinase-tagged T7 phage, affinity beads, qPCR readout), FGFR3 (V555M); conditions: FGFR binding data
# T4 construct: made in house; host or cells: E. coli derived from BL21, infected with T7 phage
# How it was run: as §1
# [5] = system: RT112/84 (Bladder Cancer), FGFR3-TACC3 fusion; assay: Cancer cell viability assay (Cell Titer-Glo), RT112/84; type: cell-based; conditions: Homo sapiens, RT112/84 cells, 72 hours
# From the text: (§2) RT112/84, UM-UC-14, SNU-16 and KG-1 Cancer Cell Line Cell Viability Assays
# (§3) To detect the change of intracellular ATP by Cell Titer-Glo@ and to evaluate the inhibitory effect of the compounds on cancer cell lines by determining the in vitro IC50 value of the compounds.
# (§4) Cell Titer-Glo@ 2.0 Luminescent cell viability assay reagent was purchased from Promega (Madison, WI). RT112/84, SNU-16, and KG-1 cell lines were purchased from American Type Culture Collection (Manassas, VA). UM-UC-14 cell line was purchased from Sigma (St. Louis, MO). RT112/84, UM-UC-14, SNU-16, and KG-1 cells were cultured in RPMI1640 media supplemented with 10% fetal bovine serum. Cultures were maintained at 37° C. in a humidified atmosphere of 5% CO2 and 95% air.
# (§5) Cell Viability Assay Procedure: Cells were plated in 96-well clear bottom/white plates (Corning #3903) at 10,000 cells/well in 100 μl of media, incubated overnight. The next day, test compound DMSO stock solutions were made at 10 mM and 2 μM final concentration. Compounds were then added to cells in a 9-dose, […] dilution series starting at 30 μM with an HP 300e Digital Dispenser (each dose was applied in triplicate). DMSO was backfilled to each well up to 301 nL total volume of test compound+DMSO, and a total of 301 nL DMSO was added to a control/no test compound well in triplicate. The cells in cell culture plates were incubated with the compounds at 37° C. and 5% CO2 for 72 hours. Then 50 μl of Cell Titer Glo 2.0 reagent was added to each well of the cell culture plates. The contents were covered from light and mixed on an orbital shaker at room temperature for 10 min. Luminescence was recorded by a Synergy H1 Microplate Reader (Biotek, Winooski, VT). Cells were assessed as a percentage of DMSO only treated control cells. Curves were plotted and IC50 values were calculated using the GraphPad Prism 8 program based on a sigmoidal dose-response equation (4 parameter).
# [6] = system: UM-UC-14 (Bladder Cancer), FGFR3(S249C); assay: Cancer cell viability assay (Cell Titer-Glo), UM-UC-14; type: cell-based; conditions: UMUC14, UM-UC-14 cells, 72 hours
# How it was run: (§6)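 Cells seeded at 10,000/well in RPMI1640 with 10% FBS, then exposed 72 h at 37° C. to a 9-point 10-fold dilution series from 30 μM, in triplicate. Viability read as ATP luminescence (CellTiter-Glo 2.0) as percent of DMSO control; IC50 from 4-parameter sigmoidal fit.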
# [7] = system: KG-1 (Acute Myeloid Leukemia), FGFR1OP2-FGFR1 fusion; assay: Cancer cell viability assay (Cell Titer-Glo), KG-1; type: cell-based; conditions: Homo sapiens, KG-1 cells, 72 hours
# From the text: as §2, §3, §4, §5
# [8] = system: SNU-16 (Gastric Carcinoma), FGFR2 amplification; assay: Cancer cell viability assay (Cell Titer-Glo), SNU-16; type: cell-based; conditions: Homo sapiens, SNU-16 cells, 72 hours, read-out: SNU16 FGFR2 (IC50 nM)
# How it was run: as §6
# T3 sequence (P22607 23-806): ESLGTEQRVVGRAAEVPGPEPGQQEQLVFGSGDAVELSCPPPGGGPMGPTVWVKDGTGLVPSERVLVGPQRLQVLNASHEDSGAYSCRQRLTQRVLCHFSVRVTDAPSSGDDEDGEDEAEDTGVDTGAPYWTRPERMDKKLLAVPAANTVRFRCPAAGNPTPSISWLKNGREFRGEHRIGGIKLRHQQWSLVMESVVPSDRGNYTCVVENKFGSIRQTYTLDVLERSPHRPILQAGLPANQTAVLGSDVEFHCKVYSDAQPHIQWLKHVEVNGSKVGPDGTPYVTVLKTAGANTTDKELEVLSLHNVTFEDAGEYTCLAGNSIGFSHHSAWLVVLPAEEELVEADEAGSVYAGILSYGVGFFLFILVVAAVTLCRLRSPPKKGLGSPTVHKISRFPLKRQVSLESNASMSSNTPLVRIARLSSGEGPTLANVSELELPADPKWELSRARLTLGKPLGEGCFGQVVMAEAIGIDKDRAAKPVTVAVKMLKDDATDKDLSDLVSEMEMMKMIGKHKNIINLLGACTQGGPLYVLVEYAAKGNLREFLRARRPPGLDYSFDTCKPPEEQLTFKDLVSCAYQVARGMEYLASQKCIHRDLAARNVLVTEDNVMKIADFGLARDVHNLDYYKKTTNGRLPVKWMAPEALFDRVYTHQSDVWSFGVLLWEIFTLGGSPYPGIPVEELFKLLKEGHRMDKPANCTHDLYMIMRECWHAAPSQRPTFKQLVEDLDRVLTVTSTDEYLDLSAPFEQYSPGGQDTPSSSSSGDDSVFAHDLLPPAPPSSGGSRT
# T2 sequence (P21802 22-821): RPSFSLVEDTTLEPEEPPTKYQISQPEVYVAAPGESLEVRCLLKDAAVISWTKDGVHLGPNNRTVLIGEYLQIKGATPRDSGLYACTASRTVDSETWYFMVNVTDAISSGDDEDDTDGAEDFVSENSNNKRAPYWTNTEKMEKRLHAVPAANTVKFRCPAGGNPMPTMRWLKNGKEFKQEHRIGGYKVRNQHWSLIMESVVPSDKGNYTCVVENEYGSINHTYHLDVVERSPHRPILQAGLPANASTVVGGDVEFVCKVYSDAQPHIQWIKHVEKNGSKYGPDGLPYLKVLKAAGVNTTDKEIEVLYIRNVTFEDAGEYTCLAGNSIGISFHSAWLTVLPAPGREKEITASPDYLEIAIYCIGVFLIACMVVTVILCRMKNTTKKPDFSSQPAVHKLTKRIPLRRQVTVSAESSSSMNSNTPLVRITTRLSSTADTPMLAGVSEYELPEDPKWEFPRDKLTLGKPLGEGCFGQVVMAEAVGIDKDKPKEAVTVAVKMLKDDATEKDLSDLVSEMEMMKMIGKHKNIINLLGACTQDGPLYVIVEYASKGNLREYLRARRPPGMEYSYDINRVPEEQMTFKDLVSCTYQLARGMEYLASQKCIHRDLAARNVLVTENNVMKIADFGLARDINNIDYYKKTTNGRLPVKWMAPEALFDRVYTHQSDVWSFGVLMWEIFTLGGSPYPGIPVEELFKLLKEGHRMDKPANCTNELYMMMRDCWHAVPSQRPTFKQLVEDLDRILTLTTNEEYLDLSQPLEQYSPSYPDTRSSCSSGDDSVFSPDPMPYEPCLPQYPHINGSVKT
# T4 sequence (P22607 23-806 V555M): as the sequence (P22607 23-806) above, with V533M counted along it
# T1 sequence (P11362 22-822): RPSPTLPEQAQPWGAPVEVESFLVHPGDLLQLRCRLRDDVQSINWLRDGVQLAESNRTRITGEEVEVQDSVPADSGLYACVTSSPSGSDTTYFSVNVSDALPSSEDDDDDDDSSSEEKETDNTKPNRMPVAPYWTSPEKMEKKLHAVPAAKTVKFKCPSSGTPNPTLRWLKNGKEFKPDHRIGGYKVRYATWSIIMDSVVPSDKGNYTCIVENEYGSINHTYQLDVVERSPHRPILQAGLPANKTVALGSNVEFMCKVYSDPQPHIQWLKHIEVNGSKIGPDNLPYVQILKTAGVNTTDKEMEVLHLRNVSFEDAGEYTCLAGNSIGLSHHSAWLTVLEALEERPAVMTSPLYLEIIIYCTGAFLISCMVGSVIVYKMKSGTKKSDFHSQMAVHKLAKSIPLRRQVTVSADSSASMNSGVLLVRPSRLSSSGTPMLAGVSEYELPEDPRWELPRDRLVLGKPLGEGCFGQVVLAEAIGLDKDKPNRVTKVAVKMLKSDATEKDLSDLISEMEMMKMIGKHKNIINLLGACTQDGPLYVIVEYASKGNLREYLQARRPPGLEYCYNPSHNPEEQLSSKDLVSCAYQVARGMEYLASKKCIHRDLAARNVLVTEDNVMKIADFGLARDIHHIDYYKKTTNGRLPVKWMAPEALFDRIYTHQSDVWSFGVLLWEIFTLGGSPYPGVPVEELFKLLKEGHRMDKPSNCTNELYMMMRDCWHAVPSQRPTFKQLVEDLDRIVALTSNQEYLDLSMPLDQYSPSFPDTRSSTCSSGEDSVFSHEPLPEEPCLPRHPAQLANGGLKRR
SMILES,Kd [1] [nM],Kd [2] [nM],Kd [3] [nM],Kd [4] [nM],IC50 [5] [nM],IC50 [6] [nM],IC50 [7] [nM],IC50 [8] [nM]
"C=CC(=O)Nc1ccc2c(c1)c(C)cn2-c1nc(Nc2cn(C)nc2OC)ncc1Cl [Example 26, N-[1-[5-chloro-2-[(3-methoxy-1-methyl-pyrazol-4-yl)amino]pyrimidin-4-yl]-3-methyl-indol-5-yl]prop-2-enamide]",0.1 to 100,0.1 to 100,0.1 to 100,0.1 to 100,100 to 250,0.1 to 100,0.1 to 100,–
"C=CC(=O)Nc1ccc2c(-c3nc(Nc4ccc(N5CCOCC5)cc4)ncc3Cl)cn(C)c2c1 [Example 27, N-[3-[5-chloro-2-(4-morpholinoanilino)pyrimidin-4-yl]-1-methyl-indol-6-yl]prop-2-enamide]",0.1 to 100,0.1 to 100,0.1 to 100,0.1 to 100,0.1 to 100,0.1 to 100,0.1 to 100,–
"C=CC(=O)Nc1ccc2c(c1)c(C)cn2-c1nc(Nc2cn(C)cn2)ncc1Cl [Example 28, N-[1-[5-chloro-2-[(1-methylimidazol-4-yl)amino]pyrimidin-4-yl]-3-methyl-indol-5-yl]prop-2-enamide]",0.1 to 100,0.1 to 100,0.1 to 100,0.1 to 100,> 1000,0.1 to 100,0.1 to 100,–
"C=CC(=O)Nc1ccc2c(-c3nc(Nc4cnn(C)c4)ncc3Cl)cn(C)c2c1 [Example 30, N-[3-[5-Chloro-2-[(1-methylpyrazol-4-yl)amino]pyrimidin-4-yl]-1-methyl-indol-6-yl]prop-2-enamide]",0.1 to 100,0.1 to 100,0.1 to 100,0.1 to 100,0.1 to 100,0.1 to 100,0.1 to 100,–
"C=CC(=O)Nc1ccc2c(c1)c(C)cn2-c1nc(Nc2cnn(C3CCN(C4COC4)CC3)c2)ncc1Cl [Example 34, N-[1-[5-Chloro-2-[[1-[1-(oxetan-3-yl)-4-piperidyl]pyrazol-4-yl]amino]pyrimidin-4-yl]-3-methyl-indol-5-yl]prop-2-enamide]",0.1 to 100,0.1 to 100,0.1 to 100,0.1 to 100,0.1 to 100,0.1 to 100,0.1 to 100,–
"C=CC(=O)Nc1ccc2c(c1)c(C)cn2-c1nc(Nc2cn(C)nc2C)ncc1Cl [Example 35, N-[1-[5-chloro-2-[(1,3-dimethylpyrazol-4-yl)amino]pyrimidin-4-yl]-3-methyl-indol-5-yl]prop-2-enamide]",0.1 to 100,0.1 to 100,0.1 to 100,0.1 to 100,0.1 to 100,0.1 to 100,0.1 to 100,–
"C=CC(=O)Nc1ccc2c(c1)c(C)cn2-c1nc(Nc2cnn(C)c2C)ncc1Cl [Example 40, N-[1-[5-chloro-2-[(1,5-dimethylpyrazol-4-yl)amino]pyrimidin-4-yl]-3-methyl-indol-5-yl]prop-2-enamide]",0.1 to 100,0.1 to 100,0.1 to 100,0.1 to 100,0.1 to 100,0.1 to 100,0.1 to 100,–
"C=CC(=O)Nc1ccc2c(c1)c(C)cn2-c1nc(Nc2cnn(C3CCN(CC)CC3)c2)ncc1Cl [Example 42, N-[1-[5-chloro-2-[[1-(1-ethyl-4-piperidyl)pyrazol-4-yl]amino]-pyrimidin-4-yl]-3-methyl-indol-5-yl]prop-2-enamide]",0.1 to 100,0.1 to 100,0.1 to 100,0.1 to 100,0.1 to 100,0.1 to 100,0.1 to 100,–
"C=CC(=O)Nc1ccc2c(c1)c(C)cn2-c1nc(Nc2ccc(N3CCOCC3)cc2)ncc1C [Example 44, N-[3-methyl-1-[5-methyl-2-(4-morpholinoanilino)pyrimidin-4-yl]indol-5-yl]prop-2-enamide]",0.1 to 100,0.1 to 100,0.1 to 100,0.1 to 100,0.1 to 100,0.1 to 100,0.1 to 100,0.1 to 100
"C=CC(=O)Nc1ccc2c(c1)c(C)cn2-c1nc(Nc2ccnn2C)ncc1C [Example 49, N-[3-methyl-1-[5-methyl-2-[(2-methylpyrazol-3-yl)amino]-pyrimidin-4-yl]indol-5-yl]prop-2-enamide]",100 to 250,0.1 to 100,0.1 to 100,0.1 to 100,0.1 to 100,0.1 to 100,0.1 to 100,0.1 to 100
"C=CC(=O)Nc1ccc2c(c1)c(C)cn2-c1ccnc(Nc2ccc(N3CCOCC3)cc2)n1 [Example 54, N-[3-Methyl-1-[2-(4-morpholinoanilino)pyrimidin-4-yl]indol-5-yl]prop-2-enamide]",0.1 to 100,0.1 to 100,0.1 to 100,0.1 to 100,0.1 to 100,0.1 to 100,0.1 to 100,0.1 to 100
"C=CC(=O)Nc1ccc2c(c1)c(C)cn2-c1nc(Nc2ccnn2C)ncc1Cl [Example 55, N-[1-[5-chloro-2-[(2-methylpyrazol-3-yl)amino]pyrimidin-4-yl]-3-methyl-indol-5-yl]prop-2-enamide]",0.1 to 100,0.1 to 100,0.1 to 100,0.1 to 100,0.1 to 100,0.1 to 100,0.1 to 100,–
"C=CC(=O)Nc1ccc2c(-c3nc(Nc4ccc(N5CCOCC5)cc4)ncc3F)cn(C)c2c1 [Example 57, N-[3-[5-Fluoro-2-(4-morpholinoanilino)pyrimidin-4-yl]-1-methyl-indol-6-yl]prop-2-enamide]",0.1 to 100,0.1 to 100,0.1 to 100,0.1 to 100,0.1 to 100,0.1 to 100,0.1 to 100,–
"C=CC(=O)Nc1ccc2c(c1)c(C)cn2-c1nc(Nc2cnn(C)c2)ncc1F [Example 61, N-[1-[5-fluoro-2-[(1-methylpyrazol-4-yl)amino]pyrimidin-4-yl]-3-methyl-indol-5-yl]prop-2-enamide]",0.1 to 100,0.1 to 100,0.1 to 100,0.1 to 100,0.1 to 100,0.1 to 100,0.1 to 100,0.1 to 100
"C=CC(=O)Nc1ccc2c(c1)c(C)cn2-c1nc(Nc2ccc(N3CCOCC3)cc2)ncc1F [Example 67, N-[1-[5-Fluoro-2-(4-morpholino-anilino)pyrimidin-4-yl]-3-methyl-indol-5-yl]prop-2-enamide]",0.1 to 100,0.1 to 100,0.1 to 100,0.1 to 100,0.1 to 100,0.1 to 100,0.1 to 100,–
"C=CC(=O)Nc1ccc2c(c1)c(C)cn2-c1nc(Nc2ccn(C)n2)ncc1C [Example 81, N-[3-methyl-1-[5-methyl-2-[(1-methylpyrazol-3-yl)amino]pyrimidin-4-yl]indol-5-yl]prop-2-enamide]",0.1 to 100,0.1 to 100,0.1 to 100,0.1 to 100,0.1 to 100,0.1 to 100,0.1 to 100,–
"C=CC(=O)Nc1cnc2c(c1)c(C)cn2-c1nc(Nc2ccnn2C)ncc1C [Example 85, N-[3-methyl-1-[5-methyl-2-[(2-methylpyrazol-3-yl)amino]pyrimidin-4-yl]pyrrolo[2,3-b]pyridin-5-yl]prop-2-enamide]",0.1 to 100,0.1 to 100,0.1 to 100,0.1 to 100,0.1 to 100,0.1 to 100,0.1 to 100,–

# — patent US20240190849A1, “AMINOPYRIMIDINE COMPOUNDS AND METHODS OF THEIR USE” (TYRA BIOSCIENCES, INC., priority 2021, published 2024)
